Measured values reported in patent US20230382904A1, “SUBSTITUTED 4-([1,2,4]TRIAZOLO[1,5-a]PYRIDIN-6-YL)THIOPHENE-2-CARBOXAMIDE DERIVATIVES AND USE THEREOF” (The Johns Hopkins University, priority 2020, published 2023).

Columns and labels:
LZK = LZK (Homo sapiens (Human), UniProt O43283); assay: LZK biochemical assay (TR-FRET, MKK7 phosphorylation)
Outline: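 Readout is the HTRF ratio (XL665/Eu) from an EDTA-containing detection mix of 0.4 nM Eu-anti-phospho-MKK7 (T275/S277) and 20 nM XL665-anti-His, incubated 16 h at 32° C. This followed a 90 min RT reaction of 10 nM LZK catalytic domain, 15 nM MKK7 and 15 μM ATP at pH 7.5.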

DLK = DLK (Homo sapiens (Human), UniProt Q12852); assay: DLK biochemical assay (TR-FRET, MKK7 phosphorylation)
DLK, sequence (Q12852 1-520): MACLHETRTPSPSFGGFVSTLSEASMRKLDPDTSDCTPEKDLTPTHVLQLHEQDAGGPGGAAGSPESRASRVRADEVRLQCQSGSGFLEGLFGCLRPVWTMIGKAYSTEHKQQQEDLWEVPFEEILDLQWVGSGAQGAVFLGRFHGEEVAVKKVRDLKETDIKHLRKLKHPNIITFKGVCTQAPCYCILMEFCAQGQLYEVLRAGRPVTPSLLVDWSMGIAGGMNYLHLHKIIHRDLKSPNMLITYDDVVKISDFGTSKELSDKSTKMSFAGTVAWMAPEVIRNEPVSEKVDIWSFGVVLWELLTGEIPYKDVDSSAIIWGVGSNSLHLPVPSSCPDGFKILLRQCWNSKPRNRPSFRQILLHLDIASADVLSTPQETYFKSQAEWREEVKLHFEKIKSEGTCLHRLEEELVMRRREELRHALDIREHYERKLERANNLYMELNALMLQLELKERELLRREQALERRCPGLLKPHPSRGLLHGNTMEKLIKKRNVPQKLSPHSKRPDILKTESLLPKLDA
Outline: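 TR-FRET ratio (665/Eu) reports MKK7 T275/S277 phosphorylation, lowered by DLK inhibition. Reaction: 60 μM ATP, 15 nM MKK7, 10 nM DLK catalytic domain, 90 min room temperature; detection incubation 16 h, 37° C. (1536-well) or 4° C. (384-well). Final concentrations.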

LZK, sequence (O43283 168-409): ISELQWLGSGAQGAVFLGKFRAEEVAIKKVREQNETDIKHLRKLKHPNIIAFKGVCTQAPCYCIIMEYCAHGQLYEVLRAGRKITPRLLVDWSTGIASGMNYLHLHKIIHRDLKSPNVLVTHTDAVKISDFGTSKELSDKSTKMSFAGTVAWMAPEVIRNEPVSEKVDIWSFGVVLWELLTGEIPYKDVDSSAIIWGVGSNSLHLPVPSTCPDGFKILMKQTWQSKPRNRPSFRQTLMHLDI

Row | Structure (SMILES) | IC50 (LZK) [µM] | IC50 (DLK) [µM]
1 | CC(C)NC(=O)c1cc(-c2csc(C(=O)N[C@H]3CCCc4ccccc43)c2)cn2nc(N)nc12 [Compound 122] | 0.36 | 0.006
2 | Nc1nc2ccc(-c3csc(C(=O)NCc4ccccc4)c3)cn2n1 [Compound 168] | 4.6 | 0.38
3 | CCO[C@H]1CC[C@H](NC(=O)c2cc(-c3ccc4nc(N)nn4c3)cs2)CC1 [Compound 177] | > 30 | 1.6
4 | Nc1nc2ccc(-c3csc(C(=O)NCc4cccc(OC(F)(F)F)c4)c3)cn2n1 [Compound 192] | > 30 | 0.46
5 | C[C@@H](CO)NC(=O)c1cc(-c2csc(C(N)=O)c2)cn2nc(N)nc12 [Compound 86] | 1.1 | 0.36
6 | COc1cccc(CNC(=O)c2cc(-c3cc(C)c4nc(N)nn4c3)cs2)c1 [Compound 372] | 9.2 | 0.43
7 | C[C@H](NC(=O)c1cc(-c2ccc3nc(N)nn3c2)cs1)c1ccccc1 [Compound 323] | 2.95 | 0.164
8 | CC(C)C(NC(=O)c1cc(-c2ccc3nc(N)nn3c2)cs1)c1ccc(F)cc1 (centres unmarked) [Compound 301] | 16.5 | 0.1
9 | CC[C@H](NC(=O)c1cc(-c2cc(C(=O)NC3COC3)c3nc(N)nn3c2)cs1)c1ccccc1 [Compound 75] | 4.2 | 0.067
10 | COCc1cc(-c2csc(C(=O)NCc3ccc(F)cc3)c2)cn2nc(N)nc12 [Compound 387] | 2.8 | 0.75
11 | Nc1nc2ccc(-c3csc(C(=O)NCc4ncco4)c3)cn2n1 [Compound 239] | 18 | 1.85
12 | COC[C@H](C)NC(=O)c1cc(-c2csc(C(=O)NCc3ccccc3)c2)cn2nc(N)nc12 [Compound 67] | 1.7 | 0.2
13 | Nc1nc2ccc(-c3csc(C(=O)NCc4ccccc4Cl)c3)cn2n1 [Compound 219] | 3.1 | 0.505
14 | CC(C)NC(=O)c1cc(-c2csc(C(N)=O)c2)cn2nc(N)nc12 [Compound 85] | 0.9 | 0.36
15 | COc1cccc(C(C)NC(=O)c2cc(-c3ccc4nc(N)nn4c3)cs2)c1 (centres unmarked) [Compound 232] | 25 | 0.2
16 | CC[C@H](C)NC(=O)c1cc(-c2csc(C(=O)N[C@@H](COC)c3ccccc3)c2)cn2nc(N)nc12 [Compound 116] | 0.014 | 0.0022
17 | CCOc1ccccc1CNC(=O)c1cc(-c2ccc3nc(N)nn3c2)cs1 [Compound 226] | 5 | 0.67
18 | CC[C@H](NC(=O)c1cc(-c2cc(C(=O)NC(C)(C)C)c3nc(N)nn3c2)cs1)c1ccc(F)cc1 [Compound 142] | 0.4 | 0.12
19 | Nc1nc2ccc(-c3csc(C(=O)NCc4cn5ccccc5n4)c3)cn2n1 [Compound 257] | > 30 | 1.1
20 | CC(NC(=O)c1cc(-c2ccc3nc(N)nn3c2)cs1)c1ccc(F)cc1F (centres unmarked) [Compound 360] | > 30 | 0.4
21 | CC(C)NC(=O)c1cc(-c2csc(C(=O)N(C)[C@@H](C)c3ccc(F)cc3)c2)cn2nc(N)nc12 [Compound 99] | 2.4 | 0.33

Row | Structure (SMILES) | IC50 (LZK) [µM] | IC50 (DLK) [µM]
22 | CC[C@H](C)NC(=O)c1cc(-c2csc(C(=O)N[C@@H](C)c3ccccc3)c2)cn2nc(N)nc12 [Compound 88] | 0.037 | 0.0032
23 | C[C@H](NC(=O)c1cc(-c2ccc3nc(N)nn3c2)cs1)c1ccc(C(F)(F)F)cc1 [Compound 353] | > 30 | 0.21
24 | COC[C@H](NC(=O)c1cc(-c2cc(C(=O)N[C@H]3CCOC3)c3nc(N)nn3c2)cs1)c1ccc(F)cc1 [Compound 139] | 0.12 | 0.0055
25 | CC[C@H](NC(=O)c1cc(-c2cc(-c3cnn(CC(F)(F)F)c3)c3nc(N)nn3c2)cs1)c1ccc(F)cc1 [Compound 403] | 5.7 | 0.14
26 | CC1(C)CC(NC(=O)c2cc(-c3ccc4nc(N)nn4c3)cs2)c2ccccc2O1 (centres unmarked) [Compound 316] | 4.7 | 0.18
27 | COC[C@H](NC(=O)c1cc(-c2cc(C(=O)NC(C)C)c3nc(N)nn3c2)cs1)c1ccc(F)cc1 [Compound 130] | 0.12 | 0.014
28 | COc1ccc([C@H](C)NC(=O)c2cc(-c3ccc4nc(N)nn4c3)cs2)cc1 [Compound 354] | > 30 | 0.11
29 | Cc1cn(C)nc1CNC(=O)c1cc(-c2ccc3nc(N)nn3c2)cs1 [Compound 243] | 17 | 1.5
30 | CC[C@@H](C)NC(=O)c1cc(-c2csc(C(=O)N[C@H](CC)c3ccc(F)cc3)c2)cn2nc(N)nc12 [Compound 136] | 5.6 | 0.063
31 | CC[C@@H](C)NC(=O)c1cc(-c2csc(C(=O)N[C@@H](CC)c3ccc(F)cc3)c2)cn2nc(N)nc12 [Compound 144] | 0.77 | 0.038
32 | CC(C)(C)NC(=O)c1cc(-c2csc(C(=O)NC3CCCCC3)c2)cn2nc(N)nc12 [Compound 14] | 0.27 | 0.034
33 | C[C@H](NC(=O)c1cc(-c2ccc3nc(N)nn3c2)cs1)c1cccc(Cl)c1 [Compound 265] | > 30 | 0.13
34 | COC[C@H](NC(=O)c1cc(-c2cc(C(=O)N[C@H]3CCOC3)c3nc(N)nn3c2)cs1)c1ccccc1 [Compound 107] | 0.046 | 0.0055
35 | Nc1nc2c(C(F)(F)F)cc(-c3csc(C(=O)NCc4ccccc4)c3)cn2n1 [Compound 378] | 9.5 | 1.8
36 | CC(NC(=O)c1cc(-c2ccc3nc(N)nn3c2)cs1)c1ccc(OC(F)(F)F)cc1 (centres unmarked) [Compound 361] | > 30 | 1.9
37 | CC(NC(=O)c1cc(-c2csc(C(=O)N[C@@H](C)c3ccccc3)c2)cn2nc(N)nc12)C(F)(F)F (mixture of isomers) [Compound 43] | 0.13 | 0.022
38 | CCN1CCCC(NC(=O)c2cc(-c3ccc4nc(N)nn4c3)cs2)C1 (centres unmarked) [Compound 180] | > 30 | 2
39 | CC(C)NC(=O)c1cc(-c2csc(C(=O)N[C@@H](C)c3ccc(C(F)(F)F)cc3)c2)cn2nc(N)nc12 [Compound 83] | 4.2 | 0.073
40 | CC[C@H](C)NC(=O)c1cc(-c2csc(C(=O)NCc3ccc(F)cc3)c2)cc2nc(N)nn12 [Compound 161] | 0.043 | 0.021
41 | C[C@H](NC(=O)c1cc(-c2cc(C(=O)NC3CC3)c3nc(N)nn3c2)cs1)c1ccc(F)cc1 [Compound 45] | 0.43 | 0.024
42 | C[C@H](NC(=O)c1cc(-c2cc(C(=O)N[C@H]3CCOC3)c3nc(N)nn3c2)cs1)c1ccc(F)cc1 [Compound 98] | 0.06 | 0.0075

Row | Structure (SMILES) | IC50 (LZK) [µM] | IC50 (DLK) [µM]
43 | Nc1nc2ccc(-c3csc(C(=O)NC4(c5ccc(F)cc5)CCC4)c3)cn2n1 [Compound 309] | 6.6 | 0.12
44 | C[C@@H](NC(=O)c1cc(-c2ccc3nc(N)nn3c2)cs1)c1ccccc1 [Compound 325] | > 30 | 0.28
45 | Nc1nc2ccc(-c3csc(C(=O)NCc4nc5ccccc5o4)c3)cn2n1 [Compound 246] | 4.4 | 1.14
46 | COc1cccc(CNC(=O)c2cc(-c3cn4nc(N)nc4cc3F)cs2)c1 [Compound 296] | 12 | 0.73
47 | C[C@H](NC(=O)c1cc(-c2cc(C(=O)NC3CCC3)c3nc(N)nn3c2)cs1)c1ccccc1 [Compound 59] | 0.255 | 0.00435
48 | C[C@H](NC(=O)c1cc(-c2cc(C(=O)NC3CNC(=O)C3)c3nc(N)nn3c2)cs1)c1ccccc1 (single isomer, unassigned) [Compound 55] | 6.5 | 0.088
49 | CCC(C)c1nnc(-c2cc(-c3csc(C(=O)NCc4ccc(F)cc4)c3)cn3nc(N)nc23)s1 (centres unmarked) [Compound 400] | 4.35 | 2.15
50 | Nc1nc2c(C(=O)NC3CCNC3)cc(-c3csc(C(=O)NCc4ccc(F)cc4)c3)cn2n1 (centres unmarked) [Compound 22] | 0.65 | 0.185
51 | Nc1nc2ccc(-c3csc(C(=O)NCC4CCCCC4)c3)cn2n1 [Compound 187] | > 30 | 0.71
52 | CC(C)NC(=O)c1cc(-c2csc(C(=O)NCc3ccc(F)cc3)c2)cc2nc(N)nn12 [Compound 145] | 0.124 | 0.0305
53 | C[C@H](NC(=O)c1cc(-c2cc(C(=O)NC3CCNC3)c3nc(N)nn3c2)cs1)c1ccccc1 (single isomer, unassigned) [Compound 50] | 0.73 | 0.042
54 | Nc1nc2c(C(=O)NCC(F)(F)F)cc(-c3csc(C(=O)NCc4ccc(F)cc4)c3)cn2n1 [Compound 61] | 3.7 | 0.57
55 | CC(C)NC(=O)c1cc(-c2csc(C(=O)NC3CCCCC3)c2)cc2nc(N)nn12 [Compound 150] | 0.49 | 0.046
56 | Nc1nc2ccc(-c3csc(C(=O)N[C@H](c4ccccc4)C(F)(F)F)c3)cn2n1 [Compound 326] | > 30 | 0.255
57 | CC(O)c1ccccc1NC(=O)c1cc(-c2ccc3nc(N)nn3c2)cs1 (centres unmarked) [Compound 294] | > 30 | 0.71
58 | CC(C)(C)NC(=O)c1cc(-c2csc(C(=O)NCc3ccccc3)c2)cn2nc(N)nc12 [Compound 16] | 0.13 | 0.037
59 | C[C@H](NC(=O)c1cc(-c2cc(C(=O)NC3CNC(=O)C3)c3nc(N)nn3c2)cs1)c1ccc(F)cc1 (mixture of isomers) [Compound 28] | 0.11 | 0.0034
60 | CNC(=O)c1cc(-c2csc(C(=O)NCc3cccc(OC)c3)c2)cn2nc(N)nc12 [Compound 8] | 2.2 | 0.14
61 | Nc1nc2ccc(-c3csc(C(=O)NC4CCC4)c3)cn2n1 [Compound 171] | > 30 | 0.97
